Experiments:
[1] = biological target: P2X7 receptor (Homo sapiens (Human), UniProt Q99572); experiment: Human P2X7 channel calcium-influx assay (Fluo-8 NW, FLIPR TETRA, Bz-ATP stimulation); type: cell-based; conditions: HEK-293 cells stably transfected with P2X7 receptor, Low Divalent Cation Assay Buffer, read-out: hP2X7 IC50
Method in brief: (§1)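 HEK-293 cells stably expressing human or mouse P2X7, preloaded with Fluo-8 NW dye for 1 h at RT. Compounds added, Bz-ATP-evoked Ca2+ influx followed as fluorescence kinetics over 5 min on FLIPR TETRA; A438079 served as reference antagonist.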

[2] = biological target: mP2X7 (Mus musculus (Mouse), UniProt Q9Z1M0); experiment: mP2X7 channel calcium-influx assay (Fluo-8 NW, FLIPR TETRA, Bz-ATP stimulation); type: cell-based
Method in brief: as §1

[3] = test system: CYP4503A4; experiment: CYP4503A4 metabolic induction (mRNA expression) in human cryopreserved platable hepatocytes; type: in vitro ADME; conditions: 10 μM test compound, two days treatment, mRNA by QuantiGene Plex 2.0
Method: In Vitro Evaluation of Test Compounds for CYP4503A4 Metabolic Induction Using Human Liver Hepatocytes.
CYP induction assessment was performed using human cryopreserved platable hepatocytes. Test compound was assessed at three or six different concentrations in duplicate.
A sandwich culture of platable cryopreserved hepatocytes was used with one day recovery period after plating. Assessment of cell morphology and confluency was performed using a phase-contrast microscope for representative wells.
The plated hepatocyte cell monolayers were treated with test compound, negative and positive controls for two days changing medium every 24 hours. On the fourth day, assessment of cell morphology and confluency was repeated to ensure cell monolayer integrity. Assessment of cell morphology and confluency was performed using a phase-contrast microscope for representative wells.
Cell monolayers were assessed for test compound cytotoxicity by an adenosine triphosphate (ATP) content assay in a separate plate.
Expression levels of mRNA for CYP1A2, CYP2B6, and CYP3A4 were evaluated by the QuantiGene® Plex 2.0 methodology.

P2X7 receptor, sequence (Q99572 whole entry): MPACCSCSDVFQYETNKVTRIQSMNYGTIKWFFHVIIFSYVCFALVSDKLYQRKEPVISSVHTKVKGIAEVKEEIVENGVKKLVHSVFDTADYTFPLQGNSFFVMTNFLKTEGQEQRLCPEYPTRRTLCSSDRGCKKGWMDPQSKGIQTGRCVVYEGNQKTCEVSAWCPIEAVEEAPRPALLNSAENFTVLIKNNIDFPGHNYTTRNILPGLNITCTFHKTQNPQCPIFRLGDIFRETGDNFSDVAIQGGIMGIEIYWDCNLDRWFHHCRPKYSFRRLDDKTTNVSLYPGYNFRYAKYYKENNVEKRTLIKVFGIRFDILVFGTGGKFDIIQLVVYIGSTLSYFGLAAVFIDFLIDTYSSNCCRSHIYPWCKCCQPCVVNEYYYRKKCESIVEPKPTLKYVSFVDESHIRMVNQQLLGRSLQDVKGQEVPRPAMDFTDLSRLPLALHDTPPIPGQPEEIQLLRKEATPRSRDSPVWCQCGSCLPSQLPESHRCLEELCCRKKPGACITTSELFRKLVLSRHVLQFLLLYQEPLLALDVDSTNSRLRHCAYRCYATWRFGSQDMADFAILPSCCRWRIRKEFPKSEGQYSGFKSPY
mP2X7, sequence (Q9Z1M0 whole entry): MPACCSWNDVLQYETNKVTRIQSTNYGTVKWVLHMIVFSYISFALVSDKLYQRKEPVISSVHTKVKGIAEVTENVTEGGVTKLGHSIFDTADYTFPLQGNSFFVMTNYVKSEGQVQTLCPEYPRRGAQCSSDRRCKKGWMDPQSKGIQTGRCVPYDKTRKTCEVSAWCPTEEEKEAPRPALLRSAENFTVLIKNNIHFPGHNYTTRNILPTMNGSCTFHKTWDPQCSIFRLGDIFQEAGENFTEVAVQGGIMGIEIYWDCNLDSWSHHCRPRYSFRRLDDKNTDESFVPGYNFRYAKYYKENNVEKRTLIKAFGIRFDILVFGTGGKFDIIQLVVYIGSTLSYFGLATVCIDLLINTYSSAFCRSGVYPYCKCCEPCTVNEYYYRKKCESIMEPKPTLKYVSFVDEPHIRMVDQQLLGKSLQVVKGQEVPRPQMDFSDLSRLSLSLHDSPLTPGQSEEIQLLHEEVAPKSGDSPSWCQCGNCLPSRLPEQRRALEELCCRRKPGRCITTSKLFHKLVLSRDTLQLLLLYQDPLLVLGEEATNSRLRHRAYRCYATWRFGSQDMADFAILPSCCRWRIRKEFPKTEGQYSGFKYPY

Row | IC50 [1] | IC50 [2] | CYP4503A4 mRNA fold increase at 10 μM [3] | Compound
1 | 0.0161 µM | 0.023 µM | 5.5 fold | O=C(NCC(c1scnc1C(F)F)N1CCC(COc2ccnc(F)c2)CC1)c1c(F)cccc1Cl (stereo not drawn) [Example 125, 2-Chloro-N-{2-[4-(difluoromethyl)-1,3-thiazol-5-yl]-2-(4-{[(2-fluoropyridin-4-yl)oxy]methyl}piperidin-1-yl)ethyl}-6-fluorobenzamide]
2 | 0.049 µM | 0.0617 µM | 6.3 fold | N#Cc1cc(OC2CCN(C(CNC(=O)c3c(F)cccc3Cl)c3scnc3C(F)F)CC2)ccn1 (stereo not drawn) [Example 127, 2-Chloro-N-(2-{4-[(2-cyanopyridin-4-yl)oxy]piperidin-1-yl}-2-[4-(difluoromethyl)-1,3-thiazol-5-yl]ethyl)-6-fluorobenzamide]
